The record followed here is ChEMBL document CHEMBL1201862, “PubChem BioAssay data set” (2004).

Among the test systems are MCF7; HL-60; SNB-75; MOLT-4; K562; DU-145; Malme-3M; UACC-257; MDA-MB-435; KM12; NCI-H460; ACHN; SK-MEL-28; U-251; COLO 205; PC-3; HCT-15; HCC 2998; T47D.
What all share (assay): inhibition of tumour cell growth, NCI panel, 48 h

SMILES strings stand for the structures.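 Method: 48-hour compound exposure of cells in 96-well plates, five concentrations, linear interpolation of endpoints. Here, GI50 denotes the concentration required for 50% inhibition of growth.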 Active and inactive are the calls of the source. Cut-off read from the data, not from the text of the source: active = GI50 up to about 1.1 µM and inactive = higher. Some results are limits rather than exact numbers.

As for `Cc1csc2c(=O)n(COCc3ccccc3)c(=O)[nH]c12`, the GI50 with MCF7 was 95.9 µM (inactive); in the assay with HL-60 it was > 100 µM (inactive); in the assay on SNB-75, > 100 µM (inactive); in the assay on MOLT-4 it was > 100 µM (inactive); in the assay on K562, > 100 µM (inactive); in the assay on DU-145, > 100 µM (inactive). Also, the GI50 in the assay with Malme-3M, in the assay with UACC-257, with MDA-MB-435, in the assay on KM12, in the assay with NCI-H460 and with ACHN was > 100 µM (inactive) in each case. Further, the GI50 in the assay with SK-MEL-28, in the assay on U-251, with COLO 205 and in the assay on PC-3 was > 100 µM (inactive) each time.
In the case of `CC12OC1(C)C1C(=O)OCC1C2=O` (centres undefined), the GI50 is 55 µM with HCT-15; 61.7 µM (inactive) with MCF7; 20.6 µM (inactive) with HL-60; 99.3 µM (inactive) with SNB-75; 28.2 µM (inactive) in the assay with K562; > 100 µM (inactive) in the assay with DU-145. In addition, the GI50 is 17.6 µM (inactive) with Malme-3M; > 100 µM (inactive) with UACC-257; > 100 µM (inactive) with MDA-MB-435; > 100 µM (inactive) in the assay on HCC 2998; 44.7 µM (inactive) with KM12; > 100 µM (inactive) in the assay on NCI-H460. The GI50 in the assay with ACHN was 62.1 µM (inactive); in the assay with SK-MEL-28, > 100 µM (inactive); in the assay on U-251 it was > 100 µM (inactive); in the assay with COLO 205, 37.4 µM (inactive); in the assay on PC-3, 52.8 µM (inactive).
Regarding `COc1cc2c(cc1OC)C(=O)N(c1ccc(O)cc1)C2`, the GI50 with HCT-15 was above 100 µM; with HL-60, > 100 µM (inactive); with MOLT-4 it was > 100 µM (inactive); in the assay with K562 it was > 100 µM (inactive); in the assay on DU-145, > 100 µM (inactive); in the assay on Malme-3M, > 100 µM (inactive). Also, the GI50 in the assay on UACC-257, in the assay on MDA-MB-435, in the assay on HCC 2998, in the assay on NCI-H460, with ACHN and with T47D was > 100 µM (inactive) throughout. In addition, the GI50 in the assay with SK-MEL-28, in the assay on U-251, with COLO 205 and with PC-3 was > 100 µM (inactive) throughout.
Regarding `C[C@H](CS)C(=O)N1c2ccccc2C[C@H]1C(=O)O`, the GI50 in the assay with HCT-15 was above 100 µM; in the assay with MCF7, > 100 µM (inactive); in the assay with HL-60, > 100 µM (inactive); in the assay on SNB-75, > 100 µM (inactive); with MOLT-4, > 100 µM (inactive); in the assay on K562, > 100 µM (inactive). The GI50 in the assay with DU-145 is > 100 µM (inactive); in the assay with UACC-257, > 100 µM (inactive); with HCC 2998, 37.5 µM (inactive); with KM12, > 100 µM (inactive); in the assay on NCI-H460, > 100 µM (inactive); in the assay with ACHN, > 100 µM (inactive). Also, the GI50 was 56 µM (inactive) with T47D; > 100 µM (inactive) in the assay on SK-MEL-28; > 100 µM (inactive) with U-251; > 100 µM (inactive) with COLO 205; > 100 µM (inactive) with PC-3.
As for `CC(=O)CC1(OC(=O)C2C(C=C(C)C)C2(C)C)C(=O)Nc2ccccc21` (centres undefined), the GI50 with HCT-15 is above 100 µM; in the assay with HL-60 it was > 100 µM (inactive); with SNB-75, 51.3 µM (inactive); in the assay with MOLT-4, > 100 µM (inactive); with K562 it was 77.3 µM (inactive); in the assay with DU-145, > 100 µM (inactive). Besides, the GI50 is > 100 µM (inactive) with Malme-3M; > 100 µM (inactive) in the assay with UACC-257; > 100 µM (inactive) in the assay on MDA-MB-435; > 100 µM (inactive) in the assay with HCC 2998; > 100 µM (inactive) in the assay on KM12; 82.8 µM (inactive) in the assay with NCI-H460. In addition, the GI50 is 78.3 µM (inactive) with ACHN; > 100 µM (inactive) in the assay with T47D; > 100 µM (inactive) in the assay on SK-MEL-28; > 100 µM (inactive) with U-251; > 100 µM (inactive) in the assay on COLO 205; 37.6 µM (inactive) in the assay with PC-3.
Consider `CCC(/C=C/C1OC(=O)C=CC1C)=C\C(C)C/C=C/C(C)=C/C(C)C(=O)C(C)C(O)C(C)C/C(C)=C/C(=O)O` (centres undefined), for which the GI50 is 1.28 µM with HCT-15; 1.03 µM (active) in the assay on MCF7; 0.855 µM (active) in the assay with HL-60; 1.91 µM (inactive) with SNB-75; 1.06 µM (active) in the assay with MOLT-4; 1.02 µM (active) in the assay on K562. Moreover, the GI50 was 0.000264 µM (active) with DU-145; 1.44 µM (inactive) with Malme-3M; 1.62 µM (inactive) with UACC-257; 2.33e-06 µM (active) in the assay with MDA-MB-435; 6.76e-06 µM (active) in the assay on HCC 2998; 4.54 µM (inactive) in the assay on KM12. For the same molecule, the GI50 in the assay on ACHN is 7.4e-06 µM (active); with SK-MEL-28 it was 2.65 µM (inactive); with U-251, 2.26 µM (inactive); in the assay with COLO 205 it was 3.69 µM (inactive); with PC-3 it was 1.27e-05 µM (active).
With `CC(C)(C)[Si](C)(C)OCC1OC(n2ccc(N)nc2=O)C(O[Si](C)(C)C(C)(C)C)C1O[Si](C)(C)C(C)(C)C` (centres undefined), the GI50 in the assay on HCT-15 was 2.23 µM; in the assay with MCF7, 2.14 µM (inactive); in the assay on SNB-75, 3.79 µM (inactive); in the assay on MOLT-4, 1.47 µM (inactive); with DU-145, 9.59 µM (inactive); in the assay on Malme-3M it was 1.8 µM (inactive). The GI50 with UACC-257 was 3.33 µM (inactive); with NCI-H460, 1.9 µM (inactive); in the assay on ACHN, 1.82 µM (inactive); in the assay with T47D, 2.7 µM (inactive); with COLO 205, 3.09 µM (inactive); with PC-3 it was 1.74 µM (inactive).
In the case of `CCOC(=O)c1c[nH]c(C(=O)OCC)c1-c1cccn1-c1ccccc1`, the GI50 was 30.4 µM with HCT-15; 18.4 µM (inactive) with HL-60; 7.06 µM (inactive) in the assay on SNB-75; 15.3 µM (inactive) with MOLT-4; 15.4 µM (inactive) in the assay with K562; 43.2 µM (inactive) with DU-145. The GI50 with Malme-3M was 10.8 µM (inactive); in the assay with UACC-257, 26.1 µM (inactive); in the assay with MDA-MB-435, 27.5 µM (inactive); with KM12 it was 10.1 µM (inactive); in the assay with NCI-H460 it was 23 µM (inactive); with ACHN, 26.2 µM (inactive). The GI50 in the assay on T47D is 28.1 µM (inactive); with SK-MEL-28, 32.4 µM (inactive); with U-251 it was 19.2 µM (inactive); in the assay with COLO 205, 21.3 µM (inactive); in the assay with PC-3, 18.7 µM (inactive).
As to `Oc1ccc2ccccc2c1/N=N\c1cccc2ccccc12`, the GI50 in the assay with HCT-15 was above 100 µM; in the assay on HL-60, 52.8 µM (inactive); in the assay on SNB-75 it was > 100 µM (inactive); in the assay on MOLT-4, 93.1 µM (inactive); in the assay with K562, > 100 µM (inactive); in the assay with DU-145 it was > 100 µM (inactive). Further, the GI50 in the assay on UACC-257, in the assay on MDA-MB-435, with KM12, with ACHN, in the assay with T47D and with SK-MEL-28 was > 100 µM (inactive) in each case. Besides, the GI50 with U-251, in the assay with COLO 205 and with PC-3 was > 100 µM (inactive) each time.
On to `COc1cc(/C=C/C2=NN(c3cccc(S(=O)(=O)O)c3)C3(C2)C(Cl)C(=O)N3c2nc3ccccc3s2)ccc1O` (centres undefined), for which the GI50 with HCT-15 is 16.7 µM; in the assay with MCF7 it was 33.1 µM (inactive); in the assay with HL-60, 21.4 µM (inactive); in the assay with SNB-75, 21.7 µM (inactive); in the assay on MOLT-4, 19.2 µM (inactive); in the assay on K562, 20.8 µM (inactive). Moreover, the GI50 with Malme-3M is 19.7 µM (inactive); with UACC-257 it was 19.9 µM (inactive); in the assay on MDA-MB-435, 17.1 µM (inactive); in the assay with HCC 2998, 20.7 µM (inactive); in the assay with KM12, 19.1 µM (inactive); with NCI-H460, 32.7 µM (inactive). In addition, the GI50 is 16.7 µM (inactive) in the assay with ACHN; 6.47 µM (inactive) in the assay on T47D; 25.1 µM (inactive) with SK-MEL-28; 18 µM (inactive) in the assay with U-251; 18.5 µM (inactive) with COLO 205; 25.6 µM (inactive) in the assay with PC-3.
For the molecule `C[N+](C)(CCNc1ccc(NCC[N+](C)(C)Cc2ccc([N+](=O)[O-])cc2)c2c1C(=O)c1c(O)ccc(O)c1C2=O)Cc1ccc([N+](=O)[O-])cc1`, the GI50 was 35.8 µM with HCT-15; > 50 µM (inactive) in the assay on HL-60; > 50 µM (inactive) in the assay with SNB-75; > 5 µM (inactive) with MOLT-4; > 5 µM (inactive) in the assay on K562; 25.5 µM (inactive) with DU-145. Further, the GI50 with Malme-3M was 30 µM (inactive); in the assay with UACC-257, > 50 µM (inactive); in the assay on MDA-MB-435 it was > 50 µM (inactive); in the assay with HCC 2998 it was > 50 µM (inactive); with KM12, 1.36 µM (inactive); in the assay with NCI-H460 it was 3.2 µM (inactive). Moreover, the GI50 in the assay with ACHN was > 50 µM (inactive); in the assay on T47D, > 50 µM (inactive); in the assay with SK-MEL-28 it was > 50 µM (inactive); in the assay with U-251, > 50 µM (inactive); in the assay on COLO 205 it was 18.7 µM (inactive); in the assay with PC-3 it was 37.8 µM (inactive).
On to `CCOC(=O)CC1(N)CC2c3ccccc3OC(=O)C2C(=O)N1` (centres undefined), for which the GI50 in the assay with HCT-15 is above 100 µM; in the assay on HL-60 it was > 100 µM (inactive); in the assay with SNB-75, > 100 µM (inactive); in the assay with MOLT-4 it was > 100 µM (inactive); in the assay with K562 it was > 100 µM (inactive); with DU-145, > 100 µM (inactive). The GI50 with Malme-3M, in the assay with UACC-257, in the assay on MDA-MB-435, in the assay with HCC 2998, in the assay on KM12 and in the assay on NCI-H460 was > 100 µM (inactive) throughout. In addition, the GI50 in the assay with ACHN, with T47D, in the assay on SK-MEL-28, in the assay on U-251, in the assay on COLO 205 and in the assay with PC-3 was > 100 µM (inactive) in each case.
